# Source: the supplement of paper PMC11208160
# Experiment: recombinant barcode read abundance after kanamycin selection (control-corrected) (log10(CPM+1)); higher = more efficient recombination; sequences stand for … in AGTGCAGAGAAAATCGGCCAGTTTTCTCTGCCTGCAGTCCGCATGCCGT…AGATTTATGCAGCGGACTGCCTTTCTCCCAAAGTGATAAACCGGACAGTATCATGGACCGGTTTTCCCGGTAATCCGTATTTGCAAGGTTGGTTTCACT; site = the 11-nt target
# Procedure, shortened: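 Duplicate cultures were plated either on chloramphenicol/ampicillin LB agar, serving as control, or on chloramphenicol/ampicillin/kanamycin with 0.1 mM IPTG. These came from a pooled E. coli library co-electroporated with a donor plasmid, each member pairing a target with an IS621 bridge RNA target-binding loop. Recombination efficiency equals averaged, control-corrected counts per million of recombinant-junction barcodes. It is listed as log10(CPM+1).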
# 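Further: IS621 recombinase and bridge RNA in Escherichia coli cells.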
row,Sequence,recombinant barcode read abundance (log10)
1,GGCAGCTCTTGGGTTCTAACCTGTTGCTT (site GGCAGTTCTAA),0.0524
2,GGCAGTCCTTGGGTTCTAACCTGTTGCCT (site GGCAGTCCTAA),0.111
3,GGCAGTCCTTGGGTTCTAACCTGTTGCCT (site GGCAGTCCTAG),0.206
4,GGCATCCCTTGGGTTCTAACCTGTTGCTA (site GGCATCCCTTA),0.654
5,GGCATCCCTTGGGTTCTAACCTGTTGCTA (site TTACAGGCTCG),0.205
6,GGCATTCCTTGGGTTCTAACCTGTTGCCT (site GGCACTCCTAG),0.0331
7,GGCATTCCTTGGGTTCTAACCTGTTGCCT (site GGCATTCCTAG),0.0435
8,GGCCTCCCTTGGGTTCTAACCTGTTGCCT (site GGCATCCCTAG),0.242
9,GGCCTCCCTTGGGTTCTAACCTGTTGCCT (site GGCCTCCCTAG),0.977
10,GGCCTCCCTTGGGTTCTAACCTGTTGCCT (site GGCGTCCCTAG),0.947
11,GGCCTCCCTTGGGTTCTAACCTGTTGCCT (site GGCTTCCCTAG),0.0579
12,GGCCTGCCTTGGGTTCTAACCTGTTGCCT (site GGCCTGCCTAG),1.31
13,GGCCTGCCTTGGGTTCTAACCTGTTGCCT (site GTCATGCCTAG),0.0864
14,GGCGAACCTTGGGTTCTAACCTGTTGCAT (site GACGATCCTAT),0.126
15,GGCGAACCTTGGGTTCTAACCTGTTGCAT (site GGCGAACCTAT),1.82
16,GGCGGTACTTGGGTTCTAACCTGTTGCCT (site GGCGGTACTAG),1.12
17,GGCGGTACTTGGGTTCTAACCTGTTGCCT (site GGCTGCACTAG),0.197
18,GGCGTCCCTTGGGTTCTAACCTGTTGCCT (site GGCATCCCTAG),0.284
19,GGCGTCCCTTGGGTTCTAACCTGTTGCCT (site GGCCTCCCTAG),0.286
20,GGCGTCCCTTGGGTTCTAACCTGTTGCCT (site GGCGTCCCTAG),1.3
21,GGCGTCCCTTGGGTTCTAACCTGTTGCCT (site GGCTTCCCTAG),0.0801
22,GGCTAGCCTTGGGTTCTAACCTGTTGCCT (site GGCTAGCCTAG),0.423

row,Sequence,recombinant barcode read abundance (log10)
1,GGCTAGCCTTGGGTTCTAACCTGTTGCCT (site TGTTAGCCTAG),0
2,GGCTCCTCTTGGGTTCTAACCTGTTGCAT (site GGATCCTCTAT),0.0148
3,GGCTCCTCTTGGGTTCTAACCTGTTGCAT (site GGCTCCTCTAT),0.907
4,GGCTCCTCTTGGGTTCTAACCTGTTGCCA (site GGCTCCTCTTG),0.674
5,GGCTCCTCTTGGGTTCTAACCTGTTGCCA (site GGTTCATCTTG),0.013
6,GGCTGCCCTTGGGTTCTAACCTGTTGCCT (site GACTGCCCTAG),0.156
7,GGCTGCCCTTGGGTTCTAACCTGTTGCCT (site GCCTGCCCTAG),0.57
8,GGCTGCCCTTGGGTTCTAACCTGTTGCCT (site GGCTGCCCTAG),0.258
9,GGCTGCCCTTGGGTTCTAACCTGTTGCCT (site GTCTGCCCTAG),0.149
10,GGGAACCCTTGGGTTCTAACCTGTTGCTC (site GGGAACCCTAA),0.131
11,GGGAACCCTTGGGTTCTAACCTGTTGCTC (site GGGAACCCTCA),0.659
12,GGGAACCCTTGGGTTCTAACCTGTTGCTC (site GGGAACCCTGA),1.16
13,GGGAACCCTTGGGTTCTAACCTGTTGCTC (site GGGAACCCTTA),0.509
14,GGGAACCCTTGGGTTCTAACCTGTTGCTT (site GGGAACCCTAA),1.25
15,GGGAACCCTTGGGTTCTAACCTGTTGCTT (site GGGAACCCTCA),0.386
16,GGGAACCCTTGGGTTCTAACCTGTTGCTT (site GGGAACCCTGA),0.0941
17,GGGAACCCTTGGGTTCTAACCTGTTGCTT (site GGGAACCCTTA),0.149
18,GGGAAGACTTGGGTTCTAACCTGTTGCCT (site GGAAAGACTAG),1.56
19,GGGAAGACTTGGGTTCTAACCTGTTGCCT (site GGCAAGACTAG),0.0845
20,GGGAAGACTTGGGTTCTAACCTGTTGCCT (site GGGAAGACTAG),2.55
21,GGGAAGACTTGGGTTCTAACCTGTTGCCT (site GGTAAGACTAG),0.333
22,GGGAATGCTTGGGTTCTAACCTGTTGCCT (site GGGAACGCTAG),0.108

row,Sequence,recombinant barcode read abundance (log10)
1,GGGAATGCTTGGGTTCTAACCTGTTGCCT (site GGGAATGCTAG),2.35
2,GGGACAGCTTGGGTTCTAACCTGTTGCCT (site GAGACAACTAG),0.15
3,GGGACAGCTTGGGTTCTAACCTGTTGCCT (site GGGACAGCTAG),1.12
4,GGGACCTCTTGGGTTCTAACCTGTTGCGT (site GGGACCTCTAC),2.68
5,GGGACCTCTTGGGTTCTAACCTGTTGCGT (site GGGACCTCTCC),0.201
6,GGGACGCCTTGGGTTCTAACCTGTTGCAT (site GAGCCGCCTAT),0.0802
7,GGGACGCCTTGGGTTCTAACCTGTTGCAT (site GGGACGCCTAT),1.17
8,GGGATACCTTGGGTTCTAACCTGTTGCTA (site GGGATACCTTA),1.37
9,GGGATACCTTGGGTTCTAACCTGTTGCTA (site TATGGTACTAC),0.292
10,GGGCACTCTTGGGTTCTAACCTGTTGCGT (site GGGCACTCTAA),0.559
11,GGGCACTCTTGGGTTCTAACCTGTTGCGT (site GGGCACTCTAC),2.97
12,GGGCACTCTTGGGTTCTAACCTGTTGCGT (site GGGCACTCTAG),0.161
13,GGGCACTCTTGGGTTCTAACCTGTTGCGT (site GGGCACTCTAT),2.27
14,GGGCTCACTTGGGTTCTAACCTGTTGCCT (site GGGCTCACTAG),0.983
15,GGGCTCACTTGGGTTCTAACCTGTTGCCT (site GGTCCCACTAG),0.184
16,GGGCTCCCTTGGGTTCTAACCTGTTGCCG (site GGGCTCCCTCG),1.92
17,GGGCTCCCTTGGGTTCTAACCTGTTGCCG (site TACAATTCTAT),0.128
18,GGGCTTACTTGGGTTCTAACCTGTTGCCT (site GAGCTTACTAG),0.695
19,GGGCTTACTTGGGTTCTAACCTGTTGCCT (site GCGCTTACTAG),0.362
20,GGGCTTACTTGGGTTCTAACCTGTTGCCT (site GGGCTTACTAG),0.178
21,GGGCTTACTTGGGTTCTAACCTGTTGCCT (site GTGCTTACTAG),0.325
22,GGGGACCCTTGGGTTCTAACCTGTTGCGG (site GGGGACCCTAC),2.34
